Data: ChEMBL document CHEMBL1130484, “Tricyclic -lactams: Total synthesis and antibacterial activity of 5-methoxyethyl and 5-hydroxyethyl trinems” (1997)
≈ marks a conversion by molar mass, not a printed value.

Experiments:
Format in all cases: functional
[1] = test system: Staphylococcus aureus; assay: In vitro antibacterial activity of compound against Staphylococcus aureus 663 PEN-S
[2] = test system: Klebsiella pneumoniae; assay: In vitro antibacterial activity of compound against Klebsiella pneumoniae 3226 was determined
[3] = test system: Escherichia coli; assay: In vitro antibacterial activity of compound against Escherichia coli 851E was determined
[4] = test system: Haemophilus influenzae; assay: In vitro antibacterial activity of compound against Haemophilus influenzae ATCC 49247 was determined
[5] = test system: Escherichia coli; assay: In vitro antibacterial activity of compound against Escherichia coli 1850E WT was determined
[6] = test system: Pseudomonas aeruginosa; assay: In vitro antibacterial activity of compound against Pseudomonas aeruginosa 1911E was determined
[7] = test system: Escherichia coli; assay: In vitro antibacterial activity of compound against Escherichia coli 1919E PM/TEM-1 was determined
[8] = test system: Pseudomonas aeruginosa; assay: In vitro antibacterial activity of compound against Pseudomonas aeruginosa 2033E PER
[9] = test system: Pseudomonas aeruginosa; assay: In vitro antibacterial activity of compound against Pseudomonas aeruginosa 2032E WT was determined
[10] = test system: Escherichia coli; assay: In vitro antibacterial activity of compound against Escherichia coli 1852E PM was determined
[11] = test system: Clostridium perfringens; assay: In vitro antibacterial activity of compound against Clostridium perfringens 615E was determined
[12] = test system: Streptococcus pneumoniae; assay: In vitro antibacterial activity of compound against Streptococcus pneumoniae 3512 was determined
[13] = test system: Enterococcus faecalis; assay: In vitro antibacterial activity of compound against Enterococcus faecalis 850
[14] = test system: Bacteroides fragilis; assay: In vitro antibacterial activity of compound against Bacteroides fragilis 2017E was determined
[15] = test system: Staphylococcus aureus; assay: In vitro antibacterial activity of compound against Staphylococcus aureus 853E PEN-R
[16] = test system: Staphylococcus aureus; assay: In vitro antibacterial activity of compound against Staphylococcus aureus 11311 MET-R
[17] = test system: Enterobacter cloacae; assay: In vitro antibacterial activity of compound against Enterobacter cloacae 3647 was determined
[18] = test system: Proteus mirabilis; assay: In vitro antibacterial activity of compound against Proteus mirabilis 3558 was determined

Compound	MIC [1]	MIC [2]	MIC [3]	MIC [4]	MIC [5]	MIC [6]	MIC [7]	MIC [8]	MIC [9]	MIC [10]	MIC [11]	MIC [12]	MIC [13]	MIC [14]	MIC [15]	MIC [16]	MIC [17]	MIC [18]
C[C@@H](O)[C@H]1C(=O)N2C(C(=O)O)=C(SCCNC=N)C[C@H]12 [IMIPENEM ANHYDROUS]	0.06 µg/mL (≈ 0.2 µM)	0.5 µg/mL (≈ 1.67 µM)	0.5 µg/mL (≈ 1.67 µM)	1 µg/mL (≈ 3.34 µM)	0.5 µg/mL (≈ 1.67 µM)	4 µg/mL (≈ 13.4 µM)	0.5 µg/mL (≈ 1.67 µM)	0.2 µg/mL (≈ 0.668 µM)	4 µg/mL (≈ 13.4 µM)	0.5 µg/mL (≈ 1.67 µM)	0.2 µg/mL (≈ 0.668 µM)	< 0.01 µg/mL	4 µg/mL (≈ 13.4 µM)	0.2 µg/mL (≈ 0.668 µM)	0.06 µg/mL (≈ 0.2 µM)	> 32 µg/mL	2 µg/mL (≈ 6.68 µM)	8 µg/mL (≈ 26.7 µM)
COCC[C@H]1CC[C@H]2C(=C(C(=O)O)N3C(=O)[C@H]([C@@H](C)O)[C@@H]23)C1	0.5 µg/mL (≈ 1.62 µM)	4 µg/mL (≈ 12.9 µM)	8 µg/mL (≈ 25.9 µM)	4 µg/mL (≈ 12.9 µM)	8 µg/mL (≈ 25.9 µM)	> 32 µg/mL	2 µg/mL (≈ 6.46 µM)	16 µg/mL (≈ 51.7 µM)	> 32 µg/mL	1 µg/mL (≈ 3.23 µM)	2 µg/mL (≈ 6.46 µM)	0.12 µg/mL (≈ 0.388 µM)	8 µg/mL (≈ 25.9 µM)	16 µg/mL (≈ 51.7 µM)	1 µg/mL (≈ 3.23 µM)	> 32 µg/mL	32 µg/mL (≈ 103 µM)	8 µg/mL (≈ 25.9 µM)
CO[C@H]1CCC[C@H]2C1=C(C(=O)[O-])N1C(=O)[C@H]([C@@H](C)O)[C@@H]21.[Na+] [SANFETRINEM SODIUM]					0.5 µg/mL	> 32 µg/mL	0.5 µg/mL				0.03 µg/mL	0.01 µg/mL	1 µg/mL	0.06 µg/mL	0.2 µg/mL			
C[C@@H](O)[C@H]1C(=O)N2C(C(=O)O)=C3C[C@@H](CCO)CC[C@@H]3[C@H]12	0.25 µg/mL (≈ 0.846 µM)	2 µg/mL (≈ 6.77 µM)	1 µg/mL (≈ 3.39 µM)	1 µg/mL (≈ 3.39 µM)	2 µg/mL (≈ 6.77 µM)	> 32 µg/mL	2 µg/mL (≈ 6.77 µM)	4 µg/mL (≈ 13.5 µM)	> 32 µg/mL	2 µg/mL (≈ 6.77 µM)	4 µg/mL (≈ 13.5 µM)	0.25 µg/mL (≈ 0.846 µM)	4 µg/mL (≈ 13.5 µM)	16 µg/mL (≈ 54.2 µM)	0.5 µg/mL (≈ 1.69 µM)	> 32 µg/mL	4 µg/mL (≈ 13.5 µM)	8 µg/mL (≈ 27.1 µM)
CO[C@H]1CC[C@H]2C(=C(C(=O)O)N3C(=O)[C@H]([C@@H](C)O)[C@@H]23)C1	0.5 µg/mL (≈ 1.78 µM)	4 µg/mL (≈ 14.2 µM)	8 µg/mL (≈ 28.4 µM)	4 µg/mL (≈ 14.2 µM)	8 µg/mL (≈ 28.4 µM)	> 32 µg/mL	2 µg/mL (≈ 7.11 µM)	16 µg/mL (≈ 56.9 µM)	> 32 µg/mL	1 µg/mL (≈ 3.55 µM)	2 µg/mL (≈ 7.11 µM)	0.12 µg/mL (≈ 0.427 µM)	8 µg/mL (≈ 28.4 µM)	16 µg/mL (≈ 56.9 µM)	1 µg/mL (≈ 3.55 µM)	> 32 µg/mL	32 µg/mL (≈ 114 µM)	8 µg/mL (≈ 28.4 µM)
